We go through 38 compounds from patent US11279687B2, “Compounds and compositions for the inhibition of NAMPT” (Valo Health, Inc., priority 2010, dated 2022).

In one assay the target is NAMPT (Homo sapiens (Human), UniProt P43490). As to the kind of experiment: NAMPT biochemical inhibition assay (NMN quantified by mass spectrometry). The note with it: NAMPT biochemical inhibition; read-out: Biochem IC50.
Another assay relates to A2780 cells. The assay can be described thus: In-vitro cell proliferation assay (SRB), A2780 cells.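 Note: viable cell number read as SRB absorbance, background from media-only wells subtracted, IC50 interpolated from percent inhibition at two bracketing compound concentrations.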 To be noted: Homo sapiens, A2780, 72 h, A2780 cells, 72 hours, SRB; read-out: A2780 IC50. The class given is cell-based.

pIC50: −log10 of the molar value.

Chain of NAMPT (P43490 whole entry): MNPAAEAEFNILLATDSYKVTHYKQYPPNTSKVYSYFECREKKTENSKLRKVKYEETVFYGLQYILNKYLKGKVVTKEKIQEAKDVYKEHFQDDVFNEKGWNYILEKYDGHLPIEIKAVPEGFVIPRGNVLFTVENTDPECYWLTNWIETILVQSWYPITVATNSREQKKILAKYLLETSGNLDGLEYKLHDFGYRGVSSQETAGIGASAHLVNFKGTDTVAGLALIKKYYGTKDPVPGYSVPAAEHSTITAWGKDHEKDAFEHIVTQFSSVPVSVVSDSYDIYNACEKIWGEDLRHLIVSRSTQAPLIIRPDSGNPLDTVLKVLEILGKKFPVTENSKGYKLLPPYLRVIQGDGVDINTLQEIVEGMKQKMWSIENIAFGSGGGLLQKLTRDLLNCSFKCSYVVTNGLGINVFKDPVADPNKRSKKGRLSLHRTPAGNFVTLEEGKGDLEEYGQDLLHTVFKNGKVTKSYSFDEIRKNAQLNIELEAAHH

One may read the pIC50 as the IC50 on a negative log10 scale, so that one unit is a factor of ten. `CN(C)c1ccc(S(=O)(=O)c2ccc(NC(=O)NCc3cccnc3)cc2)cn1` [3-{4-[6-(dimethylamino)pyridine-3-sulfonyl]phenyl}-1-(pyridin-3-ylmethyl)urea]: the pIC50 at NAMPT is 8.52; in the assay on A2780 cells it was 7.13.
In the same order, the values of `CC(C)(C)CNS(=O)(=O)c1ccc(NC(=O)NCc2cccnc2)cc1` [3-{4-[(2,2-dimethylpropyl)sulfamoyl]phenyl}-1-(pyridin-3-ylmethyl)urea] are 7.77 and 6.80.
In the case of `O=C(NCc1cccnc1)Nc1ccc(S(=O)(=O)c2cccc(Cl)c2Cl)cc1` [3-{4-[(2,3-dichlorobenzene)sulfonyl]phenyl}-1-(pyridin-3-ylmethyl)urea], the pIC50 at NAMPT is 9.00; in the assay on A2780 cells, 6.35.
Take `O=C(NCc1cccnc1)Nc1ccc(S(=O)(=O)Nc2cccc(Cl)c2Cl)cc1` [3-{4-[(2,3-dichlorophenyl)sulfamoyl]phenyl}-1-(pyridin-3-ylmethyl)urea]: the pIC50 on NAMPT was 8.70; in the assay with A2780 cells, 7.52.
For the compound `O=C(NCc1cccnc1)Nc1ccc(S(=O)(=O)c2cccc(F)c2F)cc1` [3-{4-[(2,3-difluorobenzene)sulfonyl]phenyl}-1-(pyridin-3-ylmethyl)urea], the pIC50 on NAMPT was 8.40; in the assay with A2780 cells it was 6.26.
In the same order, the values of `Cc1cccc(S(=O)(=O)c2ccc(NC(=O)NCc3cccnc3)cc2)c1C` [3-{4-[(2,3-dimethylbenzene)sulfonyl]phenyl}-1-(pyridin-3-ylmethyl)urea] are 8.30 and 6.53.
In the same order, the values of `Cc1cccc(NS(=O)(=O)c2ccc(NC(=O)NCc3cccnc3)cc2)c1C` [3-{4-[(2,3-dimethylphenyl)sulfamoyl]phenyl}-1-(pyridin-3-ylmethyl)urea] are 9.05 and 7.13.
The matching figures for `O=C(NCc1cccnc1)Nc1ccc(S(=O)(=O)c2ccc(Cl)cc2Cl)cc1` [3-{4-[(2,4-dichlorobenzene)sulfonyl]phenyl}-1-(pyridin-3-ylmethyl)urea]: 8.40 and 6.08.
For `O=C(NCc1cccnc1)Nc1ccc(S(=O)(=O)Nc2ccc(Cl)cc2Cl)cc1` [3-{4-[(2,4-dichlorophenyl)sulfamoyl]phenyl]-1-(pyridin-3-ylmethyl)urea], the pIC50 at NAMPT was 8.52; in the assay with A2780 cells it was 6.72.
In the case of `O=C(NCc1cccnc1)Nc1ccc(S(=O)(=O)c2ccc(F)cc2F)cc1` [3-{4-[(2,4-difluorobenzene)sulfonyl]phenyl}-1-(pyridin-3-ylmethyl)urea], the pIC50 was 9.00 on NAMPT and 6.46 with A2780 cells.
In the same order, the values of `COc1ccc(S(=O)(=O)c2ccc(NC(=O)NCc3cccnc3)cc2)c(OC)c1` [3-{4-[(2,4-dimethoxybenzene)sulfonyl]phenyl}-1-(pyridin-3-ylmethyl)urea] are 8.30 and 7.33.
For `COc1ccc(NS(=O)(=O)c2ccc(NC(=O)NCc3cccnc3)cc2)c(OC)c1` [3-{4-[(2,4-dimethoxyphenyl)sulfamoyl]phenyl}-1-(pyridin-3-ylmethyl)urea], the pIC50 is 8.52 on NAMPT and 6.96 in the assay on A2780 cells.
In the same order, the values of `Cc1ccc(S(=O)(=O)c2ccc(NC(=O)NCc3cccnc3)cc2)c(C)c1` [3-{4-[(2,4-dimethylbenzene)sulfonyl]phenyl}-1-(pyridin-3-ylmethyl)urea] are 7.74 and 6.01.
Regarding `O=C(NCc1cccnc1)Nc1ccc(S(=O)(=O)c2cc(Cl)ccc2Cl)cc1` [3-{4-[(2,5-dichlorobenzene)sulfonyl]phenyl}-1-(pyridin-3-ylmethyl)urea], the values for the pIC50 on NAMPT and with A2780 cells were 8.22 and 6.19, respectively.
In the same order, the values of `COc1cc(F)c(S(=O)(=O)c2ccc(NC(=O)NCc3cccnc3)cc2)cc1F` [3-{4-[(2,5-difluoro-4-methoxybenzene)sulfonyl]phenyl}-1-(pyridin-3-ylmethyl)urea] are 8.40 and 6.98.
The matching figures for `O=C(NCc1cccnc1)Nc1ccc(S(=O)(=O)c2cc(F)ccc2F)cc1` [3-{4-[(2,5-difluorobenzene)sulfonyl]phenyl}-1-(pyridin-3-ylmethyl)urea]: 8.40 and 6.39.
In the same order, the values of `COc1ccc(OC)c(S(=O)(=O)c2ccc(NC(=O)NCc3cccnc3)cc2)c1` [3-{4-[(2,5-dimethoxybenzene)sulfonyl]phenyl}-1-(pyridin-3-ylmethyl)urea] are 9.00 and 8.15.
With `COc1ccc(OC)c(NS(=O)(=O)c2ccc(NC(=O)NCc3cccnc3)cc2)c1` [3-{4-[(2,5-dimethoxyphenyl)sulfamoyl]phenyl}-1-(pyridin-3-ylmethyl)urea], the pIC50 was 8.92 at NAMPT and 8.40 in the assay with A2780 cells.
On to `Cc1ccc(C)c(S(=O)(=O)c2ccc(NC(=O)NCc3cccnc3)cc2)c1` [3-{4-[(2,5-dimethylbenzene)sulfonyl]phenyl}-1-(pyridin-3-ylmethyl)urea], for which the pIC50 on NAMPT is 7.85; in the assay with A2780 cells it was 6.33.
The matching figures for `Cc1ccc(C)c(NS(=O)(=O)c2ccc(NC(=O)NCc3cccnc3)cc2)c1` [3-{4-[(2,5-dimethylphenyl)sulfamoyl]phenyl}-1-(pyridin-3-ylmethyl)urea]: 8.22 and 6.94.
In the same order, the values of `COc1cccc(OC)c1S(=O)(=O)c1ccc(NC(=O)NCc2cccnc2)cc1` [3-{4-[(2,6-dimethoxybenzene)sulfonyl]phenyl}-1-(pyridin-3-ylmethyl)urea] are 8.15 and 7.59.
In the same order, the values of `Cc1cccc(C)c1S(=O)(=O)c1ccc(NC(=O)NCc2cccnc2)cc1` [3-{4-[(2,6-dimethylbenzene)sulfonyl]phenyl}-1-(pyridin-3-ylmethyl)urea] are 8.10 and 6.41.
In the case of `CC(=O)c1ccccc1S(=O)(=O)c1ccc(NC(=O)NCc2cccnc2)cc1` [3-{4-[(2-acetylbenzene)sulfonyl]phenyl}-1-(pyridin-3-ylmethyl)urea], the negative logarithm of the IC50 (pIC50) on NAMPT was 8.70; in the assay on A2780 cells it was 6.49.
In the same order, the values of `O=C(NCc1cccnc1)Nc1ccc(S(=O)(=O)c2ccccc2Br)cc1` [3-{4-[(2-bromobenzene)sulfonyl]phenyl}-1-(pyridin-3-ylmethyl)urea] are 8.22 and 6.60.
The matching figures for `O=C(NCc1cccnc1)Nc1ccc(S(=O)(=O)Nc2ccccc2Br)cc1` [3-{4-[(2-bromophenyl)sulfamoyl]phenyl}-1-(pyridin-3-ylmethyl)urea]: 8.70 and 7.62.
For the compound `O=C(NCc1cccnc1)Nc1ccc(S(=O)(=O)Nc2ccc(F)cc2Cl)cc1` [3-{4-[(2-chloro-4-fluorophenyl)sulfamoyl]phenyl}-1-(pyridin-3-ylmethyl)urea], the values for the pIC50 on NAMPT and in the assay on A2780 cells were 9.05 and 7.44, respectively.
The matching figures for `Cc1ccc(NS(=O)(=O)c2ccc(NC(=O)NCc3cccnc3)cc2)c(Cl)c1` [3-{4-[(2-chloro-4-methylphenyl)sulfamoyl]phenyl}-1-(pyridin-3-ylmethyl)urea]: 9.00 and 7.49.
The matching figures for `Cc1ccc(F)c(S(=O)(=O)c2ccc(NC(=O)NCc3cccnc3)cc2)c1Cl` [3-{4-[(2-chloro-6-fluoro-3-methylbenzene)sulfonyl]phenyl}-1-(pyridin-3-ylmethyl)urea]: 8.15 and 6.47.
In the same order, the values of `O=C(NCc1cccnc1)Nc1ccc(S(=O)(=O)c2ccccc2Cl)cc1` [3-{4-[(2-chlorobenzene)sulfonyl]phenyl}-1-(pyridin-3-ylmethyl)urea] are 8.30 and 6.32.
For `O=C(NCc1cccnc1)Nc1ccc(S(=O)(=O)Nc2ccccc2Cl)cc1` [3-{4-[(2-chlorophenyl)sulfamoyl]phenyl}-1-(pyridin-3-ylmethyl)urea], the pIC50 is 8.52 on NAMPT and 7.39 with A2780 cells.
In the same order, the values of `CCOc1ccccc1S(=O)(=O)c1ccc(NC(=O)NCc2cccnc2)cc1` [3-{4-[(2-ethoxybenzene)sulfonyl]phenyl}-1-(pyridin-3-ylmethyl)urea] are 8.70 and 9.40.
The matching figures for `CCOc1ccccc1NS(=O)(=O)c1ccc(NC(=O)NCc2cccnc2)cc1` [3-{4-[(2-ethoxyphenyl)sulfamoyl]phenyl}-1-(pyridin-3-ylmethyl)urea]: 8.52 and 7.49.
The matching figures for `CCc1ccccc1S(=O)(=O)c1ccc(NC(=O)NCc2cccnc2)cc1` [3-{4-[(2-ethylbenzene)sulfonyl]phenyl}-1-(pyridin-3-ylmethyl)urea]: 8.70 and 6.77.
In the case of `COc1cccc(S(=O)(=O)c2ccc(NC(=O)NCc3cccnc3)cc2)c1F` [3-{4-[(2-fluoro-3-methoxybenzene)sulfonyl]phenyl}-1-(pyridin-3-ylmethyl)urea], the pIC50 on NAMPT is 9.00; in the assay with A2780 cells, 6.41.
In the same order, the values of `COc1ccc(S(=O)(=O)c2ccc(NC(=O)NCc3cccnc3)cc2)c(F)c1` [3-{4-[(2-fluoro-4-methoxybenzene)sulfonyl]phenyl}-1-(pyridin-3-ylmethyl)urea] are 8.52 and 6.51.
The matching figures for `Cc1ccc(S(=O)(=O)c2ccc(NC(=O)NCc3cccnc3)cc2)c(F)c1` [3-{4-[(2-fluoro-4-methylbenzene)sulfonyl]phenyl}-1-(pyridin-3-ylmethyl)urea]: 8.70 and 6.29.
In the same order, the values of `Cc1ccc(NS(=O)(=O)c2ccc(NC(=O)NCc3cccnc3)cc2)c(F)c1` [3-{4-[(2-fluoro-4-methylphenyl)sulfamoyl]phenyl}-1-(pyridin-3-ylmethyl)urea] are 8.70 and 6.80.
For the compound `Cc1ccc(F)c(S(=O)(=O)c2ccc(NC(=O)NCc3cccnc3)cc2)c1` [3-{4-[(2-fluoro-5-methylbenzene)sulfonyl]phenyl}-1-(pyridin-3-ylmethyl)urea], the pIC50 was 7.92 on NAMPT and below 6.00 in the assay on A2780 cells.
